Data reported in patent US10323007B1, “N2N N4-disubstituted quinazoline-2,4-diamines and uses thereof” (University of South Florida, priority 2016, dated 2019).
Values after ≈ are worked out from the molar mass of the structure shown. Like-named read-outs stand apart in the source and are kept apart here.

How the values were obtained:
A. baumannii 1651 = experiment: MIC assay, strain 1651; assay type: cell-based, Acinetobacter baumannii; details: strain 1651
Procedure: (§1) MIC and MBC assays were performed in this study as documented by us previously.^17,23,24,25 The A. baumannii strains used are detailed in Table 7.

A. baumannii 1652 [1] = experiment: minimal bactericidal concentration (MBC) assay, strain 1652; assay type: cell-based; details: Acinetobacter baumannii, Table 8, read-out: MBC90 1652
Method in brief: (§2)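 MBC90 determined against A. baumannii clinical isolates to distinguish bactericidal from bacteriostatic activity, following the group's previously published MIC/MBC protocol.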

A. baumannii 1650 [2] = experiment: MIC assay, strain 1650; assay type: cell-based, Acinetobacter baumannii; details: strain 1650
Procedure: as §1

A. baumannii 1649 [3] = experiment: minimal bactericidal concentration (MBC) assay, strain 1649; assay type: cell-based; details: Acinetobacter baumannii, Table 8, read-out: MBC90 1649
Method in brief: as §2

A. baumannii 1403 [4] = experiment: minimal bactericidal concentration (MBC) assay, strain 1403; assay type: cell-based; details: Acinetobacter baumannii, Table 8, read-out: MBC90 1403
Method in brief: as §2

[5] = system: A. baumannii 1403 biofilm; experiment: biofilm eradication determination assay, strain 1403; assay type: cell-based, Acinetobacter baumannii; details: 90% biofilm eradication, Table 8
A. baumannii 1649 [6] = experiment: MIC assay, strain 1649; assay type: cell-based, Acinetobacter baumannii; details: strain 1649
Procedure: as §1

A. baumannii 1650 [7] = experiment: minimal bactericidal concentration (MBC) assay, strain 1650; assay type: cell-based; details: Acinetobacter baumannii, Table 8, read-out: MBC90 1650
Method in brief: as §2

A. baumannii strain 1403 = assay type: cell-based, Acinetobacter baumannii; details: serial passage, 8 days, start 0.5× MIC
Procedure: An important attribute of novel antibiotics is the ability to fend off the development of resistance towards their effects. To assess this capacity, A. baumannii strains were incubated overnight with 0.5× MIC of each of the frontrunners. The next day cells were washed and used to inoculate fresh media that contained a two-fold increase in drug. This was repeated for a total of 8 days, alongside sulfamethoxazole (SMX) and trimethoprim (TMP) controls, both of which target the same pathway as our lead agents (FIG. 2).
In order to test potential resistance towards the quinazolines, a serial passage assay was performed alongside control compounds (Sulfamethoxazole and Trimethoprim), as described by us previously.^24 A. baumannii strain 1403 was grown overnight in LB media at 37° C. The next day cultures were diluted 1:100 in fresh media and seeded into a 96-well plate. Lead quinazolines or control agents were added to respective wells at half MIC concentrations. […] These were then grown overnight, and the procedure repeated for a total of eight days.

[8] = system: A. baumannii 1649 biofilm; experiment: biofilm eradication determination assay, strain 1649; assay type: cell-based, Acinetobacter baumannii; details: 90% biofilm eradication, Table 8
A. baumannii 1646 [9] = experiment: MIC assay, strain 1646; assay type: cell-based, Acinetobacter baumannii
Procedure: as §1

A. baumannii 1652 [10] = experiment: MIC assay, strain 1652; assay type: cell-based, Acinetobacter baumannii; details: strain 1652
Procedure: as §1

A. baumannii 1646 [11] = experiment: murine model of lethal peritonitis; assay type: in vivo, mice; details: 2 mg kg^-1 intraperitoneal, one hour post challenge, 5 days
Procedure: As a final assessment, we used a murine model of lethal A. baumannii infection to determine the efficacy of quinazolines in vivo. This was performed using frontrunner 5, which had the most promising properties from all of our biological testing. Accordingly, mice were inoculated with a lethal dose of A. baumannii via intraperitoneal injection on the right side of the abdomen. One hour post challenge, mice were treated with an intraperitoneal injection of 2 mg kg^−1 of frontrunner 5 on the left side of the abdomen. As a control, we also performed similar testing using 30 mg kg^−1 of tigecycline, which we already know our test strain to be susceptible to in vitro.
Characteristics of pre-moribund state include: hunched posture, rapid, shallow and/or labored breathing, ruffled fur, lethargy, failure to respond to stimuli, soiled anogenital area, paralysis, paresis, head tilt, circling, vocalizations, non-purposeful movements, and/or were unable to eat or drink. Those mice reaching this state prior to the completion of the 5-day infection period were euthanized. The number of mice surviving between control and treatment groups was compared and analyzed for statistical significance using a log-rank (Mantel-Cox) test.

[12] = system: A. baumannii 1651 biofilm; experiment: biofilm eradication determination assay, strain 1651; assay type: cell-based, Acinetobacter baumannii; details: 90% biofilm eradication, Table 8
[13] = system: A. baumannii 1650 biofilm; experiment: biofilm eradication determination assay, strain 1650; assay type: cell-based, Acinetobacter baumannii; details: 90% biofilm eradication, Table 8
A. baumannii 1403 [14] = experiment: MIC assay, strain 1403; assay type: cell-based, Acinetobacter baumannii; details: strain 1403; for MIC: Acinetobacter baumannii
Procedure: as §1

CNc1nc(NCc2ccccc2)nc2ccc(C)cc12 [Compound 5, N^2-Benzyl-N^4,6-dimethylquinazoline-2,4-diamine]
MIC (A. baumannii 1651; Acinetobacter baumannii, Table 2, read-out: 1651 MIC): 10 µM (≈ 2.78 µg/mL)
MIC (A. baumannii 1651; Acinetobacter baumannii, lead quinazolines, Table 8, read-out: MIC 1651): 1 µM (≈ 0.278 µg/mL)
MIC (A. baumannii 1651; Tables 1, 3, 4, 5 and footnotes, read-out: 1651 MIC): 10 µM (≈ 2.78 µg/mL)
MBC (A. baumannii 1652 [1]): 12 µM (≈ 3.34 µg/mL)
MIC (A. baumannii 1650 [2]; Acinetobacter baumannii, Table 2, read-out: 1650 MIC): 50 µM (≈ 13.9 µg/mL)
MIC (A. baumannii 1650 [2]; Acinetobacter baumannii, lead quinazolines, Table 8, read-out: MIC 1650): 35 µM (≈ 9.74 µg/mL)
MIC (A. baumannii 1650 [2]; Tables 1, 3, 4, 5 and footnotes, read-out: 1650 MIC): 50 µM (≈ 13.9 µg/mL)
MBC (A. baumannii 1649 [3]): 9.3 µM (≈ 2.59 µg/mL)
MBC (A. baumannii 1403 [4]): 30 µM (≈ 8.35 µg/mL)
MBEC90 1403 [5]: 13 µM
MIC (A. baumannii 1649 [6]; Acinetobacter baumannii, Table 2, read-out: 1649 MIC): 25 µM (≈ 6.96 µg/mL)
MIC (A. baumannii 1649 [6]; Acinetobacter baumannii, lead quinazolines, Table 8, read-out: MIC 1649): 21 µM (≈ 5.85 µg/mL)
MIC (A. baumannii 1649 [6]; Tables 1, 3, 4, 5 and footnotes, read-out: 1649 MIC): 25 µM (≈ 6.96 µg/mL)
MBC (A. baumannii 1650 [7]): 27 µM (≈ 7.52 µg/mL)
increase in MIC over the 8-day test period (A. baumannii strain 1403): 4 fold
MBEC90 1649 [8]: 34 µM
MIC (A. baumannii 1646 [9]; Acinetobacter baumannii, Table 6, representative data for isolate 1646, read-out: MIC): 1 µM (≈ 0.278 µg/mL)
MIC (A. baumannii 1646 [9]; Acinetobacter baumannii, strain 1646, Table 2, read-out: 1646 MIC): 2 µM (≈ 0.557 µg/mL)
MIC (A. baumannii 1646 [9]; Acinetobacter baumannii, strain 1646, lead quinazolines, Table 8, read-out: MIC 1646): 1 µM (≈ 0.278 µg/mL)
MIC (A. baumannii 1646 [9]; strain 1646, Tables 1, 3, 4, 5 and footnotes, read-out: 1646 MIC): 2 µM (≈ 0.557 µg/mL)
MIC (A. baumannii 1652 [10]; Acinetobacter baumannii, Table 2, read-out: 1652 MIC): 20 µM (≈ 5.57 µg/mL)
MIC (A. baumannii 1652 [10]; Acinetobacter baumannii, lead quinazolines, Table 8, read-out: MIC 1652): 20 µM (≈ 5.57 µg/mL)
MIC (A. baumannii 1652 [10]; Tables 1, 3, 4, 5 and footnotes, read-out: 1652 MIC): 20 µM (≈ 5.57 µg/mL)
survival rate of infected animals (A. baumannii 1646 [11]): 83%
MBEC90 1651 [12]: 11 µM
MBEC90 1650 [13]: 21 µM
MIC (A. baumannii 1403 [14]; Tables 1, 3, 4, 5 and footnotes, read-out: 1403 MIC): 10 µM (≈ 2.78 µg/mL)
MIC (A. baumannii 1403 [14]; lead quinazolines, Table 8, read-out: MIC 1403): 10 µM (≈ 2.78 µg/mL)
1403 MIC (A. baumannii 1403 [14]; Table 2): 10 μm
